# Earlier results, collected in patent publication US8231899B2, “Quick release pharmaceutical compositions of drug substances” (Nycomed Danmark ApS, priority 1998, dated 2012).
# Key:
# [1] = room temperature
solubility in water and 0.1 N HCl [1],pKa value,solubility at a pH corresponding to 0.1 N HCl [1],Structure (SMILES)
practically insoluble,,,CC(=O)Oc1ccccc1C(=O)O [acetylsalicylic acid]
practically insoluble,,,COc1ccc2c(c1)c(CC(=O)O)c(C)n2C(=O)c1ccc(Cl)cc1 [indometacin]
,about 4.7,less than 1 mg 100 ml,CN1C(C(=O)Nc2ccccn2)=C(O)c2sc(Cl)cc2S1(=O)=O [lornoxicam]
